Data on 10 compounds can be found in ChEMBL document CHEMBL1938376, “In vitro and in silico studies of polycondensed diazine systems as anti-parasitic agents” (Bioorg Med Chem Lett, 2012).

Each structure is given as a SMILES string.

System in one series: not listed separately
Description: Solubility of the compound in 100% DMSO. It counts as physicochemical.
Conditions: not given
Turning to `CC(=O)C1=NN(c2ccccc2)C2C3N(c4ccccc4)N=C(C(C)=O)N3c3[nH]c(-c4ccccc4)cc3N12` (stereo unspecified), the solubility entry was “Insoluble”.

Turning to `C1=C(c2ccccc2)NC2=NC=C3N(c4ccccc4)N=C(c4ccccc4)N3C12` (stereo unspecified), the solubility result is reported as “Insoluble”.

Consider `COC(=O)C1=NN(c2ccccc2)C2=CN=C3NC(c4ccccc4)=CC3N21` (stereo unspecified), for which the solubility result is reported as “Insoluble”.

In the next series the test system is Plasmodium falciparum. Description: Antimalarial activity against chloroquine-sensitive Plasmodium falciparum GHA infected in human erythrocytes assessed as parasite growth after 72 hrs by malstat reagent based spectrophotometric method. It counts as functional, organism-based.
Conditions: not given
For the compound `CCOC(=O)C1=NN(c2ccc(Cl)cc2)C2C3N(c4ccc(Cl)cc4)N=C(C(=O)OCC)N3c3ccccc3N12` (stereo in doubt; 4g), the IC50 was 18.6 µM.

For the compound `CCOC(=O)C1=NN(c2ccc(Cl)cc2)C2C3N(c4ccc(Cl)cc4)N=C(C(=O)OCC)N3c3ccccc3N12` (stereo in doubt; 4f), the IC50 came out at 37.3 µM.

`COC(=O)C1=NN(c2ccccc2)C2C3N(c4ccccc4)N=C(C(=O)OC)N3c3ccccc3N12` (stereo in doubt; 4e): the IC50 was found to be 25.6 µM.

Regarding `COC(=O)C1=NN(c2ccccc2)C2C3N(c4ccccc4)N=C(C(=O)OC)N3c3ccccc3N12` (stereo in doubt; 4d), the IC50 came out at 12.3 µM.

In the case of `CC(=O)C1=NN(c2ccccc2)C2C3N(c4ccccc4)N=C(C(C)=O)N3c3ccccc3N12` (stereo in doubt; 4b), the IC50 was 8.48 µM.

For `CC(=O)C1=NN(c2ccccc2)C2C3N(c4ccccc4)N=C(C(C)=O)N3c3ccccc3N12` (stereo in doubt; 4a), the 50% inhibitory concentration (IC50) came to 64 µM.

Still in this series, the particulars now being: Plasmodium falciparum, GHA, 72 h.
On to `CC(=O)C1=NN(c2ccccc2)[C@@H]2N1c1ccccc1N1C(C(C)=O)=NN(c3ccccc3)[C@@]21C` (racemic), for which the IC50 stood at 29.2 µM.

On to `CC(=O)C1=NN(c2ccccc2)C2C3N(c4ccccc4)N=C(C(C)=O)N3c3[nH]c(-c4ccccc4)cc3N12` (stereo unspecified), for which the IC50 turned out to be 2.15 µM.

For the compound `C1=C(c2ccccc2)NC2=NC=C3N(c4ccccc4)N=C(c4ccccc4)N3C12` (stereo unspecified), the IC50 stood at 64 µM.

Regarding `COC(=O)C1=NN(c2ccccc2)C2=CN=C3NC(c4ccccc4)=CC3N21` (stereo unspecified), the IC50 is 64 µM.

The test system of a further series is Trypanosoma cruzi. In words: Antiparasitic activity against nifurtimox-sensitive amastigotes of Trypanosoma cruzi Tulahuen expressing LacZ gene infected in human MRC5 cells using chlorophenolred b-Dgalacto-pyranoside as substrate by colorimetric method. In kind it is functional, organism-based. The settings on record: Trypanosoma cruzi, Tulahuen, MRC5.
As to `CC(=O)C1=NN(c2ccccc2)[C@@H]2N1c1ccccc1N1C(C(C)=O)=NN(c3ccccc3)[C@@]21C` (racemic), the midpoint of inhibition, the IC50, lay at 33.7 µM.

With `CC(=O)C1=NN(c2ccccc2)C2C3N(c4ccccc4)N=C(C(C)=O)N3c3[nH]c(-c4ccccc4)cc3N12` (stereo unspecified), the IC50 came out at 64 µM.

The compound `C1=C(c2ccccc2)NC2=NC=C3N(c4ccccc4)N=C(c4ccccc4)N3C12` (stereo unspecified) showed an IC50 of 64 µM.

With `COC(=O)C1=NN(c2ccccc2)C2=CN=C3NC(c4ccccc4)=CC3N21` (stereo unspecified), half-maximal inhibition (IC50) required 64 µM.

`COC(=O)C1=NN(c2ccccc2)C2C3N(c4ccccc4)N=C(C(=O)OC)N3c3ccccc3N12` (stereo in doubt; 4d) had a 50% inhibitory concentration (IC50) of 64 µM.

Staying with this series, now noted: mrc5.
The compound `CCOC(=O)C1=NN(c2ccc(Cl)cc2)C2C3N(c4ccc(Cl)cc4)N=C(C(=O)OCC)N3c3ccccc3N12` (stereo in doubt; 4g) came in with an IC50 of 8.75 µM.

`CCOC(=O)C1=NN(c2ccc(Cl)cc2)C2C3N(c4ccc(Cl)cc4)N=C(C(=O)OCC)N3c3ccccc3N12` (stereo in doubt; 4f) showed an IC50 of 64 µM.

In turn, `COC(=O)C1=NN(c2ccccc2)C2C3N(c4ccccc4)N=C(C(=O)OC)N3c3ccccc3N12` (stereo in doubt; 4e) registered an IC50 of 42.5 µM.

Take `CC(=O)C1=NN(c2ccccc2)C2C3N(c4ccccc4)N=C(C(C)=O)N3c3ccccc3N12` (stereo in doubt; 4b): the IC50 is 12.6 µM.

As for `CC(=O)C1=NN(c2ccccc2)C2C3N(c4ccccc4)N=C(C(C)=O)N3c3ccccc3N12` (stereo in doubt; 4a), the half-inhibitory concentration (IC50) came out at 38.1 µM.

The subject of another series is Trypanosoma brucei. In words: Antiparasitic activity against trypomastigote form of drug-sensitive Trypanosoma brucei assessed as inhibition of parasite growth after 4 days using alamar blue/resazurin staining by fluorimetric method. It counts as functional, organism-based.
Conditions: not given
Consider `CCOC(=O)C1=NN(c2ccc(Cl)cc2)C2C3N(c4ccc(Cl)cc4)N=C(C(=O)OCC)N3c3ccccc3N12` (stereo in doubt; 4g), for which the IC50 was 2.01 µM.

For the compound `CCOC(=O)C1=NN(c2ccc(Cl)cc2)C2C3N(c4ccc(Cl)cc4)N=C(C(=O)OCC)N3c3ccccc3N12` (stereo in doubt; 4f), the IC50 amounted to 64 µM.

Regarding `COC(=O)C1=NN(c2ccccc2)C2C3N(c4ccccc4)N=C(C(=O)OC)N3c3ccccc3N12` (stereo in doubt; 4e), the concentration for half-maximal inhibition (IC50) was found to be 34.6 µM.

As to `CC(=O)C1=NN(c2ccccc2)C2C3N(c4ccccc4)N=C(C(C)=O)N3c3ccccc3N12` (stereo in doubt; 4b), the IC50 is 8.06 µM.

With `CC(=O)C1=NN(c2ccccc2)C2C3N(c4ccccc4)N=C(C(C)=O)N3c3ccccc3N12` (stereo in doubt; 4a), the IC50 is 64 µM.

The same series, now with this note: Trypanosoma brucei, 96 h.
As for `CC(=O)C1=NN(c2ccccc2)[C@@H]2N1c1ccccc1N1C(C(C)=O)=NN(c3ccccc3)[C@@]21C` (racemic), the IC50 amounted to 32.2 µM.

Turning to `CC(=O)C1=NN(c2ccccc2)C2C3N(c4ccccc4)N=C(C(C)=O)N3c3[nH]c(-c4ccccc4)cc3N12` (stereo unspecified), the half-inhibitory concentration (IC50) amounted to 64 µM.

Consider `C1=C(c2ccccc2)NC2=NC=C3N(c4ccccc4)N=C(c4ccccc4)N3C12` (stereo unspecified), for which the IC50 was 64 µM.

Consider `COC(=O)C1=NN(c2ccccc2)C2=CN=C3NC(c4ccccc4)=CC3N21` (stereo unspecified), for which the IC50 stood at 64 µM.

`COC(=O)C1=NN(c2ccccc2)C2C3N(c4ccccc4)N=C(C(=O)OC)N3c3ccccc3N12` (stereo in doubt; 4d): the IC50 stood at 64 µM.

System in the next series: not listed separately
Description: Selectivity index, ratio of IC50 for human MRC5 cells to IC50 for nifurtimox-sensitive amastigotes of Trypanosoma cruzi. In kind it is toxicity, cell-based. The settings on record: read-out: Ratio IC50.
Take `CCOC(=O)C1=NN(c2ccc(Cl)cc2)C2C3N(c4ccc(Cl)cc4)N=C(C(=O)OCC)N3c3ccccc3N12` (stereo in doubt; 4g): the selectivity ratio was 6.

In the case of `COC(=O)C1=NN(c2ccccc2)C2C3N(c4ccccc4)N=C(C(=O)OC)N3c3ccccc3N12` (stereo in doubt; 4d), the selectivity ratio stood at 6.

System in a further series: not listed separately
In words: Solubility of the compound. In kind it is physicochemical.
Conditions: not given
Turning to `CCOC(=O)C1=NN(c2ccc(Cl)cc2)C2C3N(c4ccc(Cl)cc4)N=C(C(=O)OCC)N3c3ccccc3N12` (stereo in doubt; 4g), the solubility result was “soluble”.

Take `CC(=O)C1=NN(c2ccccc2)C2C3N(c4ccccc4)N=C(C(C)=O)N3c3[nH]c(-c4ccccc4)cc3N12` (stereo unspecified): the solubility entry was “soluble”.

System in another series: not listed separately
In words: Selectivity index, ratio of IC50 for human MRC5 cells to IC50 for drug-sensitive trypomastigotes of Trypanosoma brucei. In kind it is toxicity, cell-based. The settings on record: read-out: Ratio IC50.
Regarding `CCOC(=O)C1=NN(c2ccc(Cl)cc2)C2C3N(c4ccc(Cl)cc4)N=C(C(=O)OCC)N3c3ccccc3N12` (stereo in doubt; 4g), the selectivity ratio worked out at 2.

The test system of a further series is Leishmania infantum. Description: Antiparasitic activity against amastigotes of Leishmania infantum infected in mouse peritoneal macrophages after 5 days using giemsa staining by microscopic analysis.
Conditions: not given
In kind it is functional, organism-based.
Consider `CCOC(=O)C1=NN(c2ccc(Cl)cc2)C2C3N(c4ccc(Cl)cc4)N=C(C(=O)OCC)N3c3ccccc3N12` (stereo in doubt; 4g), for which the midpoint of inhibition, the IC50, lay at 32 µM.

`CC(=O)C1=NN(c2ccccc2)C2C3N(c4ccccc4)N=C(C(C)=O)N3c3ccccc3N12` (stereo in doubt; 4b): half-maximal inhibition (IC50) was put at 32.5 µM.

The same series, now with this note: Leishmania infantum, 120 h.
With `CC(=O)C1=NN(c2ccccc2)[C@@H]2N1c1ccccc1N1C(C(C)=O)=NN(c3ccccc3)[C@@]21C` (racemic), the IC50 was found to be 24.1 µM.

On to `CC(=O)C1=NN(c2ccccc2)C2C3N(c4ccccc4)N=C(C(C)=O)N3c3[nH]c(-c4ccccc4)cc3N12` (stereo unspecified), for which the IC50 came out at 32.5 µM.

Compound `CCOC(=O)C1=NN(c2ccc(Cl)cc2)C2C3N(c4ccc(Cl)cc4)N=C(C(=O)OCC)N3c3ccccc3N12` (stereo in doubt; 4f) returned an IC50 of 64 µM.

The compound `C1=C(c2ccccc2)NC2=NC=C3N(c4ccccc4)N=C(c4ccccc4)N3C12` (stereo unspecified) had a half-maximal inhibitory concentration (IC50) of 64 µM.

For the compound `COC(=O)C1=NN(c2ccccc2)C2=CN=C3NC(c4ccccc4)=CC3N21` (stereo unspecified), the IC50 came to 64 µM.

As for `COC(=O)C1=NN(c2ccccc2)C2C3N(c4ccccc4)N=C(C(=O)OC)N3c3ccccc3N12` (stereo in doubt; 4d), the IC50 was determined as 64 µM.

Compound `CC(=O)C1=NN(c2ccccc2)C2C3N(c4ccccc4)N=C(C(C)=O)N3c3ccccc3N12` (stereo in doubt; 4a) returned an IC50 of 32 µM.

The next series deals with MRC5. In words: Cytotoxicity against human MRC5 cells after 4 to 7 days using alamar blue/resazurin staining by fluorescence assay. In kind it is cell-based. The settings on record: Homo sapiens, MRC5.
Turning to `CC(=O)C1=NN(c2ccccc2)[C@@H]2N1c1ccccc1N1C(C(C)=O)=NN(c3ccccc3)[C@@]21C` (racemic), the IC50 is 64 µM.

`CC(=O)C1=NN(c2ccccc2)C2C3N(c4ccccc4)N=C(C(C)=O)N3c3[nH]c(-c4ccccc4)cc3N12` (stereo unspecified) came in with an IC50 of 64 µM.

In the case of `C1=C(c2ccccc2)NC2=NC=C3N(c4ccccc4)N=C(c4ccccc4)N3C12` (stereo unspecified), the midpoint of inhibition, the IC50, lay at 64 µM.

For the compound `COC(=O)C1=NN(c2ccccc2)C2=CN=C3NC(c4ccccc4)=CC3N21` (stereo unspecified), it took 64 µM to reach half-maximal inhibition (IC50).

The compound `COC(=O)C1=NN(c2ccccc2)C2C3N(c4ccccc4)N=C(C(=O)OC)N3c3ccccc3N12` (stereo in doubt; 4d) had an IC50 of 64 µM.

The same series, now with this note: mrc5.
Take `CCOC(=O)C1=NN(c2ccc(Cl)cc2)C2C3N(c4ccc(Cl)cc4)N=C(C(=O)OCC)N3c3ccccc3N12` (stereo in doubt; 4g): it took 12.4 µM to reach half-maximal inhibition (IC50).

As for `CCOC(=O)C1=NN(c2ccc(Cl)cc2)C2C3N(c4ccc(Cl)cc4)N=C(C(=O)OCC)N3c3ccccc3N12` (stereo in doubt; 4f), the IC50 is 64 µM.

`COC(=O)C1=NN(c2ccccc2)C2C3N(c4ccccc4)N=C(C(=O)OC)N3c3ccccc3N12` (stereo in doubt; 4e) registered an IC50 of 33.1 µM.

`CC(=O)C1=NN(c2ccccc2)C2C3N(c4ccccc4)N=C(C(C)=O)N3c3ccccc3N12` (stereo in doubt; 4b): inhibition was half-maximal at 29.6 µM (IC50).

Take `CC(=O)C1=NN(c2ccccc2)C2C3N(c4ccccc4)N=C(C(C)=O)N3c3ccccc3N12` (stereo in doubt; 4a): inhibition was half-maximal at 64 µM (IC50).

System in the next series: not listed separately
In words: Solubility of the compound in 13% DMSO/water. In kind it is physicochemical. The settings on record: buffer.
Regarding `CC(=O)C1=NN(c2ccccc2)[C@@H]2N1c1ccccc1N1C(C(C)=O)=NN(c3ccccc3)[C@@]21C` (racemic), the solubility result was “soluble”.

As for `CCOC(=O)C1=NN(c2ccc(Cl)cc2)C2C3N(c4ccc(Cl)cc4)N=C(C(=O)OCC)N3c3ccccc3N12` (stereo in doubt; 4f), the solubility result is listed as “soluble”.

With `COC(=O)C1=NN(c2ccccc2)C2C3N(c4ccccc4)N=C(C(=O)OC)N3c3ccccc3N12` (stereo in doubt; 4d), the solubility entry was “soluble”.

Turning to `CC(=O)C1=NN(c2ccccc2)C2C3N(c4ccccc4)N=C(C(C)=O)N3c3ccccc3N12` (stereo in doubt; 4a), the solubility entry is recorded as “soluble”.
